Laboratory results from patent US20260158152A1, “SPLICING MODULATOR ANTIBODY-DRUG CONJUGATES AND METHODS OF USE” (EISAI R&D MANAGEMENT CO., LTD., priority 2018, published 2026).
Where two headings read alike, the source gives them in different places.

Tests used:
[1] = test system: FBXW5 (mature mRNA transcript); assay: In vivo PD RT-qPCR in NCI-N87 tumors, FBXW5; set-up: species or system CB17-SCID mice; details: 10 mg/kg IV single dose, NCI-N87 xenograft, versus vehicle
Experimental: (§1) Single cell suspension of 5 million cells per 0.1 mL (50% ATCC-modification-RPMI-1640-medium, Cat. No. A10491-01 (Thermo-Fisher Scientific); and 50% Corning Matrigel, Cat No. 356254 (VWR Scientific)) was injected subcutaneously on the right lateral flank with a syringe with a 25 Ga needle. Mice were randomized on day 0 at a mean tumor volume of 180-183 mm^3, n=8 per group for efficacy and n=4 per group for pharmacodynamics (PD). On day 1, test articles were administered (10 mg/kg) at a volume of 5 mL/kg intravenously every 7 days for 2 cycles for efficacy; a single course of treatment was used for PD assessment. Animals in the PD cohorts were euthanized at 24, 48, 72, and/or 96 hours post-dosing of a single dose, depending on the test article.
(§2) RNA was purified from tumor samples using MagMAX-96 for Microarrays kit and MagMAX Express-96 Deep Well Magnetic Particle Processor (ThermoFisher Scientific). Tumor samples (size 50-100 mg) were collected in RNAlater buffer and kept at −80° C. until RNA isolation. Tissue homogenization was performed by adding 2-3 ceramic beads and 1 mL of Tri-reagent into a tube containing tumors, followed by disruption on an Omni Bead Ruptor 24 instrument (Omni International). RNA isolation was done according to the manufacturer's instructions.
(§3) RNA lysates were isolated and reverse transcribed using TaqMan Fast Virus 1-Step Master Mixt (ThermoFisher Scientific) according to the manufacturer's instructions.
(§4) Quantitative PCR from cDNA was performed using TaqMan Gene Expression Master Mix (ThermoFisher Scientific) with transcript probes targeting FBXW5 or TAOK1 junctions duplexed with RPLP0 RNA VIC-PL (ThermoFisher Scientific) and quantified using the ΔΔCt method.
(§5) RT-qPCR of FBXW5 (mature mRNA transcript) and TAOK1 (neojunction transcript) were monitored. Test article or vehicle was given intravenously (IV) at 10 mg/kg. […] Tumors were isolated for RNA extraction and RT-qPCR. *p<0.05 versus vehicle using one-way ANOVA (FIG. 24A and FIG. 24B) or two-way ANOVA (FIG. 24C and FIG. 24D).

[2] = test system: TAOK1 (neojunction transcript); assay: In vivo PD RT-qPCR in NCI-N87 tumors, TAOK1; set-up: species or system CB17-SCID mice; details: 10 mg/kg IV single dose, NCI-N87 xenograft, versus vehicle
Experimental: as §1, §2, §3, §4, §5

THP1.1 = assay: Payload cell potency and lethality CellTiter-Glo, THP1; type: cell-based; details: for GI50: Homo sapiens
Experimental: Each concentration was tested in triplicate. […] Values represent time zero (TO).

[3] = Caco-2 permeability of ADC payload; type: in vitro ADME; details: human, payload; for efflux ratio at 2 h, 10 µM: Caco-2, B−A/A−B
Experimental: (§6) Integrity of cell monolayer was confirmed by TEER (transepithelial electrical resistance) and Lucifer yellow. Payloads were spiked in duplicate at 10 µM, separately, on both sides of the cell monolayer. Permeability rates from the apical to basolateral (A−B) direction and the basolateral to apical (B−A) direction were determined by sampling aliquots from both chambers immediately after treatment (t=0) and following incubation for 2 hours. Samples were protein precipitated with organic solvent containing internal standard and analyzed by LC-MS/MS (SCIEX; API 5500). The area ratio responses of payload/internal standard over time in both directions were used to generate permeability (cm/sec) values.

N87 cells = assay: Cell viability CellTiter-Glo, N87; type: cell-based, human; details: unconjugated payload of the ADC
Experimental: (§7) HCC1954 (American Type Culture Collection (ATCC)) breast ductal carcinoma cells were plated at 2000 cells/well in flat bottom 96-well tissue culture plates (Corning) in a total volume of 90 μL tissue culture medium supplemented with 10% fetal bovine serum (ThermoFisher Scientific). Cells were treated with a 3-fold serial dilution of compound from 200 nM to 0.03 nM. Each concentration was tested in triplicate. At the time of treatment, a plate of untreated cells was evaluated using CellTiter-Glo®2.0 Luminescent Cell Viability Assay according to the manufacturer's recommendations (Promega; #G9241). CellTiter-Glo® 2.0 reagent was added to the medium, incubated, and assayed on an EnVision Multilabel Reader (PerkinElmer). Values represent time zero (TO). […] Percentage growth inhibition was calculated as: [(T144−T0)/(C−T0)]×100 for concentrations for which T144>/=T0 or [(T144−T0)/T0]×100 for concentrations for which T144<T0. The dose response curve plots were generated using Prism 7 (Graphpad) and fit using nonlinear regression analysis and the log (inhibitor) versus response—variable slope (four parameters).
HCC1954 (ATCC), 2000 cells/well), N87 (ATCC, 4000 cells/well), SKBR3 (ATCC, 3000 cells/well), and MCF7 (ATCC, 1500 cells/well) cell lines were used. Cell viability analysis was performed as described in section 2.3.

PC3 cells = assay: Cell viability, EPHA2-expressing PC3; type: cell-based; details: free payload of the ADC
Experimental: as §7
Anti-CD138 ADCs were tested in the CD138-expressing MOLP8 multiple myeloma cell line. Similarly, anti-EPHA2 ADCs were tested in the EPHA2-expressing PC3 prostate cancer cell line.

Caco-2 cells = assay: Caco-2 permeability of ADC payload; type: in vitro ADME; details: for Perm. Mean Caco-2 B-A Perm: corresponding free payload
Experimental: as §6

NCIH1650.1 = assay: Payload cellular potency, CTGlo-ATS, 72 h, NCIH1650.1; type: cell-based; details: corresponding free payload, cell line #1, 72 h
[4] = THP-1, read-out: Payload cell potency: CT..-ATS GMean GI50 (nM) THP1.1

In the case of `CC[C@H](O)[C@@H](C)[C@H]1O[C@@H]1C[C@@](C)(O)/C=C/C=C(\C)[C@H]1OC(=O)C[C@H](O)CC[C@@](C)(OC(C)=O)[C@@H](OC(=O)N2CCN(C(=O)OCc3ccc(NC(=O)[C@H](CCCNC(N)=O)NC(=O)[C@@H](NC(=O)CCCCCN4C(=O)C=CC4=O)C(C)C)cc3)CC2)/C=C/[C@@H]1C` [ADL1-D4], the “change in FBXW5 mature mRNA transcript in tumors” value [1] is reported as “significant depletion of FBXW5” and the “change in TAOK1 neojunction transcript in tumors” value [2] is reported as “significant increases in TAOK1”.
With `CC[C@H](O)[C@@H](C)[C@H]1O[C@@H]1C[C@@](C)(O)/C=C/C=C(\C)[C@H]1OC(=O)C[C@H](O)CC[C@@](C)(OC)[C@@H](OC(=O)N2CCNC(CCC(=O)O)C2)/C=C/[C@@H]1C` (stereo partly drawn) [D22, N-ethyl-N-isopropylpropan-3-(4-((((2S,3S,6S,7R,10R,E)-10-hydroxy-2-((R,2E,4E)-6-hydroxy-7-((2R,3R)-3-((2R,3S)-3-hydroxypentan-2-yl)oxiran-2-yl)-6-methylhepta-2,4-dien-2-yl)-7-methoxy-3,7-dimethyl-12-oxooxacyclododec-4-en-6-yl)oxy)carbonyl)piperazin-2-yl)propanoic acid] the “CTGlo-ATS Mean MinResponse % THP1.1” value (THP1.1; payload of the ADC) was −78.119% and the efflux ratio at 2 h, 10 µM [3] was 1.14.
With `CC[C@H](O)[C@@H](C)C1OC1C[C@@](C)(O)/C=C/C=C(\C)[C@H]1OC(=O)C[C@H](O)CC[C@@](C)(OC)[C@@H](OC(=O)N2CCN(CCN3C(=O)C=CC3=O)CC2)/C=C/[C@@H]1C` (stereo in doubt) [ADL14-D1, (2S,3S,6S,7R,10R,E)-10-hydroxy-2-((R,2E,4E)-6-hydroxy-7-((2S,3S)-3-((2R,3S)-3-hydroxypentan-2-yl)oxiran-2-yl)-6-methylhepta-2,4-dien-2-yl)-7-methoxy-3,7-dimethyl-12-oxooxacyclododec-4-en-6-yl 4-(2-(2,5-dioxo-2,5-dihydro-1H-pyrrol-1-yl)ethyl)piperazine-1-carboxylate] the “change in FBXW5 mature mRNA transcript in tumors” value [1] was “did not exhibit statistically significant changes” and the “change in TAOK1 neojunction transcript in tumors” value [2] was “did not exhibit statistically significant changes”.
`C/C(=C\c1cc(F)cc(N2CCN(CC(=O)O)CC2)c1)[C@H]1OC(=O)C[C@H](O)CC[C@H](C)[C@@H](OC(=O)N2CCNCC2)/C=C/[C@@H]1C` [D33, 2-(4-(3-fluoro-5-((E)-2-((2S,3S,6R,7S,10R,E)-10-hydroxy-3,7-dimethyl-12-oxo-6-((piperazine-1-carbonyl)oxy)oxacyclododec-4-en-2-yl)prop-1-en-1-yl)phenyl)piperazin-1-yl) acetic acid] showed an efflux ratio at 2 h, 10 µM [3] of 4.08.
In the case of `CC[C@H](O)[C@@H](C)[C@H]1O[C@@H]1C[C@H](C)/C=C/C=C(\C)[C@H]1OC(=O)C[C@H](O)CC[C@@](C)(OC)[C@@H](OC(=O)N2CCNCC2)/C=C/[C@@H]1C` [D18, (2S,3S,6S,7R,10R,E)-10-hydroxy-2-((S,2E,4E)-7-((2R,3R)-3-((2R,3S)-3-hydroxypentan-2-yl)oxiran-2-yl)-6-methylhepta-2,4-dien-2-yl)-7-methoxy-3,7-dimethyl-12-oxooxacyclododec-4-en-6-yl piperazine-1-carboxylate], the “Payload Rmin (%)” value (N87 cells) is reported as −92.127% and the efflux ratio at 2 h, 10 µM [3] is reported as 23.
With `CC[C@H](O)[C@@H](C)[C@H]1O[C@@H]1C[C@@](C)(O)/C=C/C=C(\C)[C@H]1OC(=O)C[C@H](O)CC[C@@](C)(O)[C@@H](OC(=O)N2CCN(C3CCCCCC3)CC2)/C=C/[C@@H]1C` [D11, E7107] the “CTGlo-ATS Mean MinResponse % THP1.1” value (THP1.1; payload of the ADC) was −100.481%.
In the case of `CC[C@H](O)[C@@H](C)C1OC1C[C@@](C)(O)/C=C/C=C(\C)[C@H]1OC(=O)C[C@H](O)CC[C@@](C)(OC(C)=O)[C@@H](OC(=O)N2CCNCC2)/C=C/[C@@H]1C` (stereo in doubt) [D4, (2S,3S,6S,7R,10R,E)-7-acetoxy-10-hydroxy-2-((R,2E,4E)-6-hydroxy-7-((2S,3S)-3-((2R,3S)-3-hydroxypentan-2-yl)oxiran-2-yl)-6-methylhepta-2,4-dien-2-yl)-3,7-dimethyl-12-oxooxacyclododec-4-en-6-yl piperazine-1-carboxylate], the “Payload Rmin (%)” value (N87 cells) is reported as −81.775%, the GI50 (THP1.1; [4]) is reported as 10.9 nM and the “Payload Rmin” value (PC3 cells) is reported as −55.97%. The “Perm. Mean Caco-2 B-A Perm” value (Caco-2 cells) was 1.79 10e−6 cm/s.
With `C/C(=C\c1cc(F)cc(N2CCOCC2)c1)[C@H]1OC(=O)C[C@H](O)CC[C@H](C)[C@@H](OC(=O)N2CCN(C)CC2)/C=C/[C@@H]1C` [D17] the GI50 (THP1.1; THP-1, payload of the ADC, read-out: Payload cell potency: CT..-ATS GMean GI50 (nM) THP1.1) was 2.83 nM.
For `CC[C@H](O)[C@@H](C)[C@H]1O[C@@H]1C[C@@](C)(O)/C=C/C=C(\C)[C@H]1OC(=O)C[C@H](O)CC[C@@](C)(OC)[C@@H](OC(=O)N2CCN(C)CC2)/C=C/[C@@H]1C` [D2, (2S,3S,6S,7R,10R,E)-10-hydroxy-2-((R,2E,4E)-6-hydroxy-7-((2R,3R)-3-((2R,3S)-3-hydroxypentan-2-yl)oxiran-2-yl)-6-methylhepta-2,4-dien-2-yl)-7-methoxy-3,7-dimethyl-12-oxooxacyclododec-4-en-6-yl 4-methylpiperazine-1-carboxylate], the “Payload Rmin (%)” value (N87 cells) was −72.706%, the GI50 (THP1.1; [4]) was 2.02 nM and the “CTGlo-ATS Mean MinResponse % THP1.1” value (THP1.1; payload of the ADC) was −100.218%. For the same compound, the “payload cell potency as compared to D1” value (THP1.1; see Table 14) was “three-fold increase”, the “Payload Rmin” value (PC3 cells) was −68.803% and the “payload permeability as compared to D1” value (Caco-2 cells; see Table 14) was “three-fold increase”.
For `CC[C@H](O)[C@@H](C)[C@H]1O[C@@H]1C[C@@](C)(O)/C=C/C=C(\C)[C@H]1OC(=O)C[C@H](O)CC[C@@](C)(OC)[C@@H](OC(=O)N2CCNCC2)/C=C/[C@@H]1C` (stereo in doubt) [D1], the “Payload Rmin (%)” value (N87 cells) was −40.041%, the “CTGlo-ATS Mean MinResponse % THP1.1” value (THP1.1; payload of the ADC) was −100.815% and the “Payload Rmin” value (PC3 cells) was −71.987%. The “Perm. Mean Caco-2 B-A Perm” value (Caco-2 cells) was 2.05 10e−6 cm/s and the “CTGlo-ATS GMean LD50 72 h NCIH1650.1” value (NCIH1650.1) was >10 µM.
With `CC(=O)N1CCC(n2nnc3c(F)cc(/C=C(\C)[C@H]4OC(=O)C[C@H](O)CC[C@H](C)[C@@H](OC(=O)N5CCN(C)CC5)/C=C/[C@@H]4C)cc32)CC1` [D15] the “Payload Rmin” value (PC3 cells) was −79.835%, the Papp B→A at 2 h, 10 µM ([3]; Caco-2, basolateral to apical, 2 hours, read-out: Permeability Mean Caco-2 B-A Perm (10e−6 cm/s)) was 28.9 ×10⁻⁶ cm/s and the efflux ratio at 2 h, 10 µM [3] was 7.84.
With `CC[C@H](O)[C@@H](C)[C@H]1O[C@@H]1C[C@@](C)(O)/C=C/C=C(\C)[C@H]1OC(=O)C[C@H](O)CC[C@@](C)(OC(=O)N2CCNCC2)[C@@H](OC(C)=O)/C=C/[C@@H]1C` [D8, (2S,3S,6S,7R,10R,E)-6-acetoxy-10-hydroxy-2-((R,2E,4E)-6-hydroxy-7-((2R,3R)-3-((2R,3S)-3-hydroxypentan-2-yl)oxiran-2-yl)-6-methylhepta-2,4-dien-2-yl)-3,7-dimethyl-12-oxooxacyclododec-4-en-7-yl piperazine-1-carboxylate] the “Payload Rmin (%)” value (N87 cells) was −34.052%, the “Payload Rmin” value (PC3 cells) was −68.37% and the Papp A→B at 2 h, 10 µM ([3]; Caco-2, apical to basolateral, 2 hours, read-out: Permeability Mean Caco-2 A-B Perm (10e−6 cm/s)) was 0.138 ×10⁻⁶ cm/s. The “Perm. Mean Caco-2 B-A Perm” value (Caco-2 cells) was 2.027 10e−6 cm/s and the “CTGlo-ATS GMean LD50 72 h NCIH1650.1” value (NCIH1650.1) was >10 µM.
In the case of `COc1cc2cc(c1Cl)N(C)C(=O)C[C@H](OC(=O)[C@H](C)N(C)C(=O)CCS)[C@]1(C)O[C@H]1[C@H](C)[C@@H]1C[C@@](O)(NC(=O)O1)[C@H](OC)/C=C/C=C(\C)C2` [DM1, reference compound], the “Payload cell lethality: CT..-ATS GMean LD50 (nM) THP1.1” value (THP1.1; payload of the ADC) is reported as 3.287 nM.
For `CC[C@H](O)[C@@H](C)[C@H]1O[C@@H]1C[C@@](C)(O)/C=C/C=C(\C)[C@H]1OC(=O)C[C@H](O)CC[C@@](C)(OC)[C@@H](OC(=O)N(C)CCNC)/C=C/[C@@H]1C` [D20, (2S,3S,6S,7R,10R,E)-10-hydroxy-2-((R,2E,4E)-6-hydroxy-7-((2R,3R)-3-((2R,3S)-3-hydroxypentan-2-yl)oxiran-2-yl)-6-methylhepta-2,4-dien-2-yl)-7-methoxy-3,7-dimethyl-12-oxooxacyclododec-4-en-6-yl methyl(2-(methylamino)ethyl)carbamate], the efflux ratio at 2 h, 10 µM [3] was 2.38.
With `CC[C@H](O)[C@@H](C)[C@H]1O[C@@H]1C[C@@](C)(O)/C=C/C=C(\C)[C@H]1OC(=O)C[C@H](O)CC[C@@](C)(O)[C@@H](OC(=O)N2CCNCC2)/C=C/[C@@H]1C` [D12] the “Perm. Mean Caco-2 B-A Perm” value (Caco-2 cells) was 0.23 10e−6 cm/s and the “CTGlo-ATS GMean LD50 72 h NCIH1650.1” value (NCIH1650.1) was >100 µM.
For `CC(=O)N1CCC(n2nnc3c(F)cc(/C=C(\C)[C@H]4OC(=O)C[C@H](O)CC[C@H](C)[C@@H](OC(=O)N5CC[N+](C)(Cc6ccc(NC(=O)[C@H](C)NC(=O)[C@@H](NC(=O)CCCCCN7C(=O)C=CC7=O)C(C)C)cc6)CC5)/C=C/[C@@H]4C)cc32)CC1` [ADL5-D15, 4-((((2S,3S,6R,7S,10R,E)-2-((E)-1-(1-(1-acetylpiperidin-4-yl)-4-fluoro-1H-benzo[d][1,2,3]triazol-6-yl)prop-1-en-2-yl)-10-hydroxy-3,7-dimethyl-12-oxooxacyclododec-4-en-6-yl)oxy)carbonyl)-1-(4-((S)-2-((S)-2-(6-(2,5-dioxo-2,5-dihydro-1H-pyrrol-1-yl)hexanamido)-3-methylbutanamido)propanamido)benzyl)-1-methylpiperazin-1-ium], the “change in FBXW5 mature mRNA transcript in tumors” value [1] was “significant depletion of FBXW5” and the “change in TAOK1 neojunction transcript in tumors” value [2] was “showed an increase in TAOK1, but did not reach statistical significance”.
With `CC[C@H](O)[C@@H](C)[C@H]1O[C@@H]1C[C@@](C)(O)/C=C/C=C(\C)[C@H]1OC(=O)C[C@H](O)CC[C@@](C)(OC)[C@@H](OC(=O)N2CCN(CCCC(=O)O)CC2)/C=C/[C@@H]1C` [D25] the “Payload Rmin (%)” value (N87 cells) was 40.364%.
